# Assay results: US9340577B2, “HLA binding motifs and peptides and their uses” (priority 1992, dated 2016)
# pIC50: −log10 of the molar value. No end group written: not given here.
# How the values were obtained:
# Experiment in all cases: biochemical
# Format in all cases: binding
# A*6802 = A*6802 (Homo sapiens, UniProt P04439, A269V/D140Y/D185E/E176V/E277Q/E87N/F33Y/G231S/I121R/I166T/I218V/L180W/L300P/L318F/N151K/P208A/P217A/Q86R/R138H/R169H/S129P/T345S/V36M)
# A*0203 = A*0203 (Homo sapiens, UniProt P04439, A173T/D140Y/D185E/D98H/E277Q/G131W/G231S/I119V/I121R/I166T/I218V/L180W/L300P/L318F/N151K/N90K/P208A/P217A/Q86G/Q94H/R138H/R169H/T345S)
# A*0202 = A*0202 (Homo sapiens, UniProt P04439, D140Y/D185E/D98H/E176V/E277Q/G131W/G231S/I119L/I121R/I166T/I218V/L180W/L300P/L318F/N151K/N90K/P208A/P217A/Q67R/Q86G/Q94H/R138H/R169H/T345S)
# A*0206 = A*0206 (Homo sapiens, UniProt P04439, D140Y/D185E/D98H/E176V/E277Q/F33Y/G131W/G231S/I119V/I121R/I166T/I218V/L300P/L318F/N151K/N90K/P208A/P217A/Q86G/Q94H/R138H/R169H/T345S)
# HLA-A*0201 (HLA-A2.1) = HLA-A*0201 (HLA-A2.1) (Homo sapiens, UniProt P04439, D140Y/D185E/D98H/E176V/E277Q/G131W/G231S/I119V/I121R/I166T/I218V/L300P/L318F/N151K/N90K/P208A/P217A/Q86G/Q94H/R138H/R169H/T345S)
sequence,measurement,setting,value
QQIEFITFL [Peptide 1578.10],pIC50,A*6802,7.03
same,pIC50,A*0203,7.70
same,pIC50,A*0202,8.23
same,pIC50,A*0206,7.35
same,pIC50,HLA-A*0201 (HLA-A2.1),7.38
QQIEFVSFL [Peptide 1578.16],pIC50,A*6802,7.36
same,pIC50,A*0203,7.85
same,pIC50,A*0202,8.48
same,pIC50,A*0206,7.31
same,pIC50,HLA-A*0201 (HLA-A2.1),7.72
QQSTQELFV [Peptide 9013.0056],pIC50,A*6802,< 4.70
same,pIC50,A*0203,6.39
same,pIC50,A*0202,6.79
same,pIC50,A*0206,6.23
same,pIC50,HLA-A*0201 (HLA-A2.1),5.80
RILQHLLFA [Peptide 1525.24],pIC50,A*6802,< 4.70
same,pIC50,A*0203,7.29
same,pIC50,A*0202,6.66
same,pIC50,A*0206,7.96
same,pIC50,HLA-A*0201 (HLA-A2.1),6.80
RILQQLLFA [Peptide 1525.14],pIC50,A*6802,< 4.70
same,pIC50,A*0203,7.17
same,pIC50,A*0202,7.17
same,pIC50,A*0206,7.70
same,pIC50,HLA-A*0201 (HLA-A2.1),6.91
RILQQLLFV [Peptide 1525.09],pIC50,A*6802,4.75
same,pIC50,A*0203,7.22
same,pIC50,A*0202,6.31
same,pIC50,A*0206,7.74
same,pIC50,HLA-A*0201 (HLA-A2.1),7.55
RILQQLLLI [Peptide 1525.20],pIC50,A*6802,< 4.70
same,pIC50,A*0203,6.00
same,pIC50,A*0202,5.33
same,pIC50,A*0206,7.09
same,pIC50,HLA-A*0201 (HLA-A2.1),6.70
RILQQMLFI [Peptide 1525.22],pIC50,A*6802,< 4.70
same,pIC50,A*0203,6.62
same,pIC50,A*0202,6.15
same,pIC50,A*0206,6.97
same,pIC50,HLA-A*0201 (HLA-A2.1),6.73
RILQRLLFV [Peptide 1525.27],pIC50,A*6802,< 4.70
same,pIC50,A*0203,7.96
same,pIC50,A*0202,5.80
same,pIC50,A*0206,7.14
same,pIC50,HLA-A*0201 (HLA-A2.1),7.19
RLENAILFTA [Peptide 1578.51],pIC50,A*6802,< 4.70
same,pIC50,A*0203,5.75
same,pIC50,A*0202,7.37
same,pIC50,A*0206,5.34
same,pIC50,HLA-A*0201 (HLA-A2.1),5.67
RLLQQLLFI [Peptide 1525.10],pIC50,A*6802,< 4.70
same,pIC50,A*0203,7.34
same,pIC50,A*0202,7.15
same,pIC50,A*0206,7.72
same,pIC50,HLA-A*0201 (HLA-A2.1),7.57
RLLTLLSVT [Peptide 9013.0076],pIC50,A*6802,< 4.70
same,pIC50,A*0203,5.80
same,pIC50,A*0202,5.34
same,pIC50,A*0206,6.32
same,pIC50,HLA-A*0201 (HLA-A2.1),5.74
RLQLSNGNRTL [Peptide 9013.0286],pIC50,A*6802,< 4.70
same,pIC50,A*0203,5.55
same,pIC50,A*0202,6.35
same,pIC50,A*0206,< 4.70
same,pIC50,HLA-A*0201 (HLA-A2.1),< 4.70
RLQLSNGNRTV [Peptide 9013.0328],pIC50,A*6802,5.31
same,pIC50,A*0203,7.24
same,pIC50,A*0202,6.89
same,pIC50,A*0206,< 4.70
same,pIC50,HLA-A*0201 (HLA-A2.1),5.23
RLTVTTITV [Peptide 9013.0067],pIC50,A*6802,4.89
same,pIC50,A*0203,7.44
same,pIC50,A*0202,7.66
same,pIC50,A*0206,6.15
same,pIC50,HLA-A*0201 (HLA-A2.1),6.97
RLTVTTITVYA [Peptide 9013.0305],pIC50,A*6802,7.28
same,pIC50,A*0203,6.69
same,pIC50,A*0202,7.64
same,pIC50,A*0206,5.96
same,pIC50,HLA-A*0201 (HLA-A2.1),6.61
RMLQHLLFI [Peptide 1545.04],pIC50,A*6802,< 4.70
same,pIC50,A*0203,8.40
same,pIC50,A*0202,8.00
same,pIC50,A*0206,7.85
same,pIC50,HLA-A*0201 (HLA-A2.1),7.80
RMLQQLLFI [Peptide 1525.12],pIC50,A*6802,4.73
same,pIC50,A*0203,7.92
same,pIC50,A*0202,6.89
same,pIC50,A*0206,7.80
same,pIC50,HLA-A*0201 (HLA-A2.1),7.82
RMLQQLLFV [Peptide 1525.16],pIC50,A*6802,< 4.70
same,pIC50,A*0203,8.17
same,pIC50,A*0202,7.68
same,pIC50,A*0206,7.85
same,pIC50,HLA-A*0201 (HLA-A2.1),7.68
RTLQLLLFV [Peptide 1525.25],pIC50,A*6802,5.49
same,pIC50,A*0203,6.33
same,pIC50,A*0202,6.43
same,pIC50,A*0206,7.96
same,pIC50,HLA-A*0201 (HLA-A2.1),8.33
RTLQQLLFI [Peptide 1525.11],pIC50,A*6802,< 4.70
same,pIC50,A*0203,5.78
same,pIC50,A*0202,< 4.70
same,pIC50,A*0206,7.05
same,pIC50,HLA-A*0201 (HLA-A2.1),6.82
RTLQQLLFV [Peptide 1525.15],pIC50,A*6802,< 4.70
same,pIC50,A*0203,6.72
same,pIC50,A*0202,5.89
same,pIC50,A*0206,7.52
same,pIC50,HLA-A*0201 (HLA-A2.1),6.92
RTLTLLSVV [Peptide 9013.0075],pIC50,A*6802,< 4.70
same,pIC50,A*0203,6.52
same,pIC50,A*0202,5.22
same,pIC50,A*0206,7.06
same,pIC50,HLA-A*0201 (HLA-A2.1),6.30
RTTVKTITVSV [Peptide 9013.0318],pIC50,A*6802,8.85
same,pIC50,A*0203,6.34
same,pIC50,A*0202,6.06
same,pIC50,A*0206,6.86
same,pIC50,HLA-A*0201 (HLA-A2.1),5.80
